The values below come from patent US20230413819A1, “METHODS FOR CONTROLLING FLEA AND TICK INFESTATIONS IN A MAMMAL” (In the Bowl Animal Health, Inc., priority 2021, published 2023).

The subject of test [1] is Ctenocephalides felis. Nature of the test: Efficacy of spinosyn per os to dogs against Ctenocephalides felis, comb counts of live adult fleas (Example 2). Type of test: in vivo. As to conditions: for percent reduction in live adult flea counts: by the day 14 comb count. From the text: Methods: A pool of 40 dogs are to be preliminarily infested with ˜100 unfed adult C. felis in order to produce a pool of dogs that can suitably sustain a reliable infestation rate of approximately 50% of live fleas over a 48-hour period. The dogs with the highest live flea counts are to be randomly allocated to 4 treatment groups (6 dogs per group) based on their pre-treatment flea counts from experimental infestations. The first treatment group is to be the control group and groups 2-4 are to be the test groups.
The dogs are to be housed individually during the study period and are to be fed a commercial dry dog food ration with ad libitum access to water.
Dogs in the control group are not to receive a spinosyn or any other flea control treatment. Each dog in test groups 2-4 is to be offered its daily ration (dry food) and the individual doses of liquid formulation are to be administered after the individual dog has eaten at least 25% of its total daily ration. After receiving the dose of a spinosyn the dogs are to be allowed to continue eating. This mimics incorporating the spinosyn in feed. Each dog in test groups 2-4 and the control group is to be experimentally infested with 100 unfed adult fleas on test days −1, 5, 12, 19, 28 and 35. Comb counts for live adult fleas are to be conducted on days 2, 7, 14, 21, 30 and 37. The final experimental infestation is to occur five days after the last daily dose of spinosyn.

Test [2] deals with C. felis. Nature of the test: Efficacy of spinosyn in medicated feed dosed at 0.5 mg/kg, comb counts of live adult fleas (Example 3). To be noted: dogs. The test is classed as in vivo. From the text:
Methods: A pool of dogs are to be preliminarily infested with ˜100 unfed adult C. felis in order to produce a pool of 18 dogs that can suitably sustain a reliable infestation rate of approximately 50% of live fleas over a 48-hour period. The dogs with the highest live flea counts are to be randomly allocated to 3 groups (6 dogs per group) based on their pre-treatment flea counts from experimental infestations. The first treatment group is to be the control group and groups 2-3 are to be the test groups.
The dogs are to be housed individually during the study period and are to have ad libitum access to water.
There is to be an initial acclimation period of at least 4 days during which dogs in test groups 2 and 3 are to be transitioned from a standard certified commercial chow to an unmedicated version of the daily feed. During the acclimation period, the dogs are to be allowed 1 hour to consume the feed, after which the dogs' acceptance of the feed will be observed and recorded.
Dogs in the control group are not to receive a spinosyn or any other flea control treatment. On days 0-29, each dog in test groups 2 and 3 is to be offered its daily feed containing spinosyn for a period of 1 hour. On days 30-37 all dogs will be given regular dog food, without spinosyn, or a physiologically acceptable derivative thereof […]

Regarding spinosad, the “percent reduction in live adult flea counts” value in test [1] (Group 2, 0.25 mg/kg daily oral) is on record as 100%; in test [1] (Group 3, 0.50 mg/kg daily oral), 100%; in test [1] (Group 4, 1.0 mg/kg daily oral), 100%. Moreover, the “efficacy (reduction in live adult flea counts)” value in test [1] (Group 3, 0.50 mg/kg daily oral days 0-29, day 37, after wash out period) is given as “over 98%”; in test [1] (Group 4, 1.0 mg/kg daily oral days 0-29, day 37, after wash out period), “over 98%”; in test [2] (Group 2, 0.5 mg/kg daily feed formulation 1, by the 14-day comb count), “over 90%”; in test [2] (Group 3, 0.5 mg/kg daily feed formulation 2, by the 14-day comb count), “over 90%”.
